Experimental findings from patent US11242347B2, “2-phenyl-3,4-dihydropyrrolo[2,1-Ff] [1,2,4]triazinone derivatives as phosphodiesterase inhibitors and uses thereof” (TOPADUR PHARMA AG, priority 2015, dated 2022) are described below.

Assay [1] deals with human phosphodiesterase-5 (PDE5 enzyme isolated from human platelets) (Homo sapiens (Human), UniProt O76074). Briefly: PDE5 assay: formation of 5′GMP from cGMP (SPA).
Experimental: Evaluation of the effects of compounds of the present invention on the activity of the human phosphodiesterase-5 quantified by measuring the formation of 5′GMP from cGMP using PDE5 enzyme isolated from human platelets.
Thereafter, the reaction is initiated by addition of the enzyme and the mixture is incubated for 60 min at 22° C.
For basal control measurements, the enzyme is omitted from the reaction mixture. Following incubation SPA beads are added. After 20 min at 22° C. under shaking, the amount of [3H]5′GMP is quantified with a scintillation counter (Topcount, Packard).
The standard inhibitory reference compound is dipyridamole, which is tested in each experiment at several concentrations to obtain an inhibition curve from which its IC50 value is calculated.
The subject of assay [2] is phenylephrine-precontracted rat aortic rings. Briefly: Isometric tension studies: relaxation of phenylephrine-precontracted rat aortic rings. The note with it: for IC40: concentration where 40% relaxation was achieved; for pEC50 / Emax: Rattus norvegicus.
Experimental: After 1 week of acclimatization, rats were anesthetized. Appropriate depth of anesthesia was determined by the absence of the leg flexor response and the eyelid reflex. Then, the thorax was quickly opened by a midline incision, and the rat was sacrificed by cutting the heart and exsanguination.
Indomethacin (1 μM) was added to the saline solution.
Eligible rings were then washed several times to restore tension to the baseline level.
In some experiments, the entire length of the thoracic aorta was functionally denuded of the endothelial layer by gently scraping the luminal surface with a 1.5 mm glass rod. […] Rings were then washed several times to restore tension to the baseline level.
Indomethacin (1 μM) was added to the saline solution. […] Only vessels with at least 60% relaxation to 1 μM ACh from the tension with 300 nM were eligible.
The preparations were allowed to equilibrate for 60 min in Krebs with high glucose (25 mM) before contraction to a new single concentration of PE (300 nM).
Finally, sodium nitroprusside (0.1 mM) was added, in order to obtain maximum relaxation of arterial rings.
The amount of relaxation (percent values as means±SEM) was quantified as percent relaxation from the tension (plateau) achieved with phenylephrine.
Data are presented as mean±SEM. Statistical analysis of results has been performed by analysis of variance (ANOVA) either parametric or non-parametric (Kruskal-Wallis), followed by Bonferroni test or Dunn tests as appropriate (GraphPad Software Inc, San Diego, Calif., USA). Significance was accepted when P<0.05. Non-linear regression was conducted with GraphPad Software).
[3] abbreviates: 5.0E−09M, percent inhibition of the control enzyme activity.

pEC50, pIC50: −log10 of the molar value. Like-named read-outs stand apart in the source and are kept apart here. A value given as a limit tells only on which side of the number the result lay.

By % inhibition is commonly meant how much of the control response was suppressed. A high value points to strong suppression. For `CCCOc1ccc(S(=O)(=O)N2CCN(CCO)CC2)cc1-c1nn2c(CCC)c(CO)c(C)c2c(=O)[nH]1` [Compound 1n, 2-(5-((4-(2-hydroxyethyl)piperazin-1-yl)sulfonyl)-2-propoxyphenyl)-6-(hydroxymethyl)-5-methyl-7-propylpyrrolo[2,1-f][1,2,4]triazin-4(3H)-one], in assay [1] (setting [3]), the “% inhibition at 5.0E−09M” value is 33.0%.
The pIC50 is the negative decadic logarithm of the IC50, by convention in mol/L. Read a low pIC50 as a high IC50. In assay [1], `CCCc1cc(C)c2c(=O)[nH]c(-c3cc(S(=O)(=O)N4CCN(CCCO)CC4)ccc3OCC)nn12` [Compound 1ap, 2-(2-ethoxy-5-((4-(3-hydroxypropyl)piperazin-1-yl)sulfonyl)phenyl)-5-methyl-7-propylpyrrolo [2,1-f][1,2,4]triazin-4(3H)-one] gave a pIC50 of 8.55. The “% inhibition at 5.0E−09M” value in assay [1] (setting [3]) is on record as 69.2%.
The term pEC50 denotes −log10 of the EC50, conventionally taken in molar units. The low end stands for a high EC50, the high end for a low EC50. One may read the Emax as the size of the effect at its maximum, as opposed to the concentration needed. For the molecule `CCCc1nn(C)c2c(=O)[nH]c(-c3cc(S(=O)(=O)N4CCN(C)CC4)ccc3OCC)nc12` [sildenafil, reference compound], the IC40 was 826.989 nM in assay [2] (High Glucose (25 mM)), 0.194 nM in assay [2] (Intact Endothelium (E+)), 95.659 nM in assay [2] (L-NAME (100 μM)) and greater than 1000 nM in assay [2] (Without Endothelium). The pEC50 was 7.69 in assay [2] (High Glucose (25 mM)), 9.73 in assay [2] (Intact Endothelium (E+)), 8.24 in assay [2] (L-NAME (100 μM)) and 7.69 in assay [2] (Without Endothelium). Moreover, the Emax was determined as 49.1% in assay [2] (High Glucose (25 mM)), 79.3% in assay [2] (Intact Endothelium (E+)), 51.4% in assay [2] (L-NAME (100 μM)) and 36.4% in assay [2] (Without Endothelium).
Consider `CCCc1c(/C=N/O)c(C)c2c(=O)[nH]c(-c3cc(S(=O)(=O)N4CCN(C)CC4)ccc3OCC)nn12` [Compound 1a, (E)-2-(2-ethoxy-5-((4-methylpiperazin-1-yl)sulfonyl)phenyl)-5-methyl-4-oxo-7-propyl-3,4-dihydropyrrolo[2,1-f][1,2,4]triazine-6-carbaldehyde oxime], for which the “% inhibition at 5.0E−09M” value in assay [1] (setting [3]) amounted to 77.6%.
`CCCc1c(C(O)CC#N)c(C)c2c(=O)[nH]c(-c3cc(S(=O)(=O)N4CCN(C)CC4)ccc3OCC)nn12` (stereo not drawn) [Compound 1u, 3-(2-(2-ethoxy-5-((4-methylpiperazin-1-yl)sulfonyl)phenyl)-5-methyl-4-oxo-7-propyl-3,4-dihydropyrrolo[2,1-f][1,2,4]triazin-6-yl)-3-hydroxy propanenitrile] showed a negative-log IC50 (pIC50) in assay [1] of 8.82. In assay [1] (setting [3]), the “% inhibition at 5.0E−09M” value was 50.3%.
As to “(E)-2-(4-(4-ethoxy-3-(6-((methoxyimino)methyl)-5-methyl-4-oxo-7-propyl-3,4-dihydropyrrolo[1,2-f][1,2,4]triazin-2-yl)phenylsulfonyl)piperazin-1-yl)ethyl nitrate [Compound 1ai]”, in assay [1], the “% inhibition at 5.0E−09M” value was 0.3%.
On to `CCCOc1ccc(S(=O)(=O)N2CCN(C)CC2)cc1-c1nn2c(CCC)c(/C=N/OC)c(C)c2c(=O)[nH]1` [Compound 1o, (E)-5-methyl-2-(5-((4-methylpiperazin-1-yl)sulfonyl)-2-propoxyphenyl)-4-oxo-7-propyl-3,4-dihydropyrrolo[2,1-f][1,2,4]triazine-6-carbaldehyde O-methyl oxime], for which the “% inhibition at 5.0E−09M” value in assay [1] (setting [3]) is 83.0%.
On the same count and under the same terms, the value for `CCCOc1ccc(S(=O)(=O)N2CCC(CCO[N+](=O)[O-])CC2)cc1-c1nn2c(CCC)c(/C=N\O)c(C)c2c(=O)[nH]1` [Compound 1aq, (Z)-2-(1-((3-(6-((hydroxyimino)methyl)-5-methyl-4-oxo-7-propyl-3,4-dihydropyrrolo[2,1-f][1,2,4]triazin-2-yl)-4-propoxyphenyl)sulfonyl)piperidin-4-yl)ethyl nitrate] was 1.3%.
On to `CCCc1c(/C=N/O)c(C)c2c(=O)[nH]c(-c3cc(S(=O)(=O)N4CCC(CCO[N+](=O)[O-])CC4)ccc3OCC)nn12` [Compound 1am, (E)-2-(1-(4-ethoxy-3-(6-((hydroxyimino)methyl)-5-methyl-4-oxo-7-propyl-3,4-dihydropyrrolo[1,2-f][1,2,4]triazin-2-yl)phenylsulfonyl)piperidin-4-yl)ethyl nitrate], for which, in assay [1], the “% inhibition at 5.0E−09M” value is given as 25.1% and the pIC50 is 7.18.
“(E)-2-(4-(4-ethoxy-3-(6-((2-hydroxyethoxyimino)methyl)-5-methyl-4-oxo-7-propyl-3,4-dihydropyrrolo[1,2-f][1,2,4]triazin-2-yl)phenylsulfonyl)piperazin-1-yl)ethyl nitrate [Compound 1ak]”: the “% inhibition at 5.0E−09M” value in assay [1] was determined as 8.3%.
As to `CCCc1c(/C=N/O)c(C)c2c(=O)[nH]c(-c3cc(S(=O)(=O)N4CCN(CCO[N+](=O)[O-])CC4)ccc3OCC)nn12` [Compound 1af, (E)-2-(4-((4-ethoxy-3-(6-((hydroxyimino)methyl)-5-methyl-4-oxo-7-propyl-3,4-dihydropyrrolo[2,1-f][1,2,4]triazin-2-yl)phenyl)sulfonyl)piperazin-1-yl)ethyl nitrate], the “% inhibition at 5.0E−09M” value in assay [1] (setting [3]) came to 74.5%.
The same measure, in the same setting: the value for `CCCc1c(/C=N/O)c(C)c2c(=O)[nH]c(-c3cc(S(=O)(=O)N4CCN(CCCO)CC4)ccc3OCC)nn12` [Compound 1an, (E)-2-(2-ethoxy-5-(4-(3-hydroxypropyl)piperazin-1-ylsulfonyl)phenyl)-5-methyl-4-oxo-7-propyl-3,4-dihydropyrrolo[1,2-f][1,2,4]triazine-6-carbaldehyde oxime] was 84.9%.
For the molecule `CCCc1c(/C=N/O)c(C)c2c(=O)[nH]c(-c3cc(S(=O)(=O)N4CCN(CCCO[N+](=O)[O-])CC4)ccc3OCC)nn12` [Compound 1ao, (E)-3-(4-(4-ethoxy-3-(6-((hydroxyimino)methyl)-5-methyl-4-oxo-7-propyl-3,4-dihydropyrrolo[1,2-f][1,2,4]triazin-2-yl)phenylsulfonyl)piperazin-1-yl)propyl nitrate], in assay [1], the negative-log IC50 (pIC50) is 7.92. Besides, the “% inhibition at 5.0E−09M” value in assay [1] (setting [3]) is given as 70.6%.
Take `CCCc1c(C(O)CC(=O)NO)c(C)c2c(=O)[nH]c(-c3cc(S(=O)(=O)N4CCN(C)CC4)ccc3OCC)nn12` (stereo not drawn) [Compound 1t, 3-(2-(2-ethoxy-5-((4-methylpiperazin-1-yl)sulfonyl)phenyl)-5-methyl-4-oxo-7-propyl-3,4-dihydropyrrolo[2,1-f][1,2,4]triazin-6-yl)-N,3-dihydroxy propanamide]: the “% inhibition at 5.0E−09M” value in assay [1] (setting [3]) came to 44.9%.
On to `CCCc1c(CO)c(C)c2c(=O)[nH]c(-c3cc(S(=O)(=O)N4CCN(C)CC4)ccc3OCC)nn12` [Compound 1b, 2-(2-ethoxy-5-((4-methylpiperazin-1-yl)sulfonyl)phenyl)-6-(hydroxymethyl)-5-methyl-7-propylpyrrolo[2,1-f][1,2,4]triazin-4(3H)-one], for which the negative logarithm of the IC50 (pIC50) in assay [1] is 7.92. For the same molecule, the “% inhibition at 5.0E−09M” value in assay [1] (setting [3]) stood at 34.0%.
Take `CCCc1c(C=O)c(C)c2c(=O)[nH]c(-c3cc(S(=O)(=O)N4CCN(CCO)CC4)ccc3OCC)nn12` [Compound 1w, 2-(2-ethoxy-5-((4-(2-hydroxyethyl)piperazin-1-yl)sulfonyl)phenyl)-5-methyl-4-oxo-7-propyl-3,4-dihydropyrrolo[2,1-f][1,2,4]triazine-6-carbaldehyde]: the “% inhibition at 5.0E−09M” value in assay [1] (setting [3]) stood at 75.5%.
Take `CCCc1c(/C=N/O)c(C)c2c(=O)[nH]c(-c3cc(S(=O)(=O)N4CCC(CCO)CC4)ccc3OCC)nn12` [Compound 1al, (E)-2-(2-ethoxy-5-(4-(2-hydroxyethyl)piperidin-1-ylsulfonyl)phenyl)-5-methyl-4-oxo-7-propyl-3,4-dihydropyrrolo[1,2-f][1,2,4]triazine-6-carbaldehyde oxime]: in assay [1] (setting [3]), the “% inhibition at 5.0E−09M” value was determined as 84.9%.
